Patent US5767141A, “Substituted propane derivatives, a process for their preparation and the use of the compounds for treating diseases” (Hoechst Aktiengesellschaft, priority 1994, dated 1998)

How the values were obtained:
[1] = tested on: glucose-6-phosphatase; conditions: qualitative, literature; cited from earlier work
[2] = target: T1, glucose-6-phosphatase system (Rattus norvegicus, UniProt F7EWB7); experiment: inhibition of the glucose-6-phosphatase system, enzyme assay in liver microsomes (phosphate liberated from glucose 6-phosphate); assay type: biochemical, male Wistar rats
T1 construct: To prepare the microsome fraction containing the glucose-6-phosphatase, fresh liver organs from male Wistar rats were used; from tissue; host or cells: liver microsome fraction of male Wistar rats
T1 sequence (F7EWB7 1-429): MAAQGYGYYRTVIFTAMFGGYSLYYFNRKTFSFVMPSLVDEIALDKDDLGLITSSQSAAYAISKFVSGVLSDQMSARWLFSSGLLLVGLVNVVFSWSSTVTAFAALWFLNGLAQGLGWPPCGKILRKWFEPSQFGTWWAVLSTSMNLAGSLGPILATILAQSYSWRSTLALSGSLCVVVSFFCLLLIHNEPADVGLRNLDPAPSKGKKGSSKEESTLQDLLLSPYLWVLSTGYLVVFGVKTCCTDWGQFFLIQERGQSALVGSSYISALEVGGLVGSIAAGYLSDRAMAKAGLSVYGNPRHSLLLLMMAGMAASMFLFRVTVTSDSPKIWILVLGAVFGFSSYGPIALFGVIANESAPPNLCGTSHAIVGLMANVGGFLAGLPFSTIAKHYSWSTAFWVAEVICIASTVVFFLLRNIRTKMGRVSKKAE
Procedure: The effect of the compounds according to the invention on the glucose-6-phosphatase system was investigated in an enzyme assay in liver microsomes.
To prepare the microsome fraction containing the glucose-6-phosphatase, fresh liver organs from male Wistar rats were used and were processed as described in the literature [Canfield, W. K. and Arion, W. J., J. Biol. Chem. 263, 7458-7460, (1988)]. This microsome fraction can be stored at -70° C. for at least 2 months without significant loss of activity.
The glucose-6-phosphatase activity was detected as indicated in the literature (Arion, W. J. in Methods Enzymol. 174, Academic Press 1989, pages 58-67) by determination of the phosphate liberated from glucose 6-phosphate. 0.1 ml of assay mixture contained glucose 6-phosphate (1 mmol/l), the test substance, 0.1 mg of microsome fraction and 100 mmol/l HEPES buffer (4-(2-hydroxyethyl)piperazine-1-ethanesulfonic acid), pH 7.0. The reaction was started by adding the enzyme. After 20 minutes at room temperature, the reaction was stopped by adding 0.2 ml of phosphate reagent. The sample was incubated at 37° C. for 30 min, and the absorption (A) of the blue color was subsequently measured at 570 nm. The inhibitory activity of the test substance emerged from comparison with a control reaction which contained no test substance according to the formula [formula] […]

| Structure (SMILES) | inhibition of glucose-6-phosphatase (in words) [1] | inhibition of the glucose-6-phosphatase system (in words) ([2]; qualitative statement) | IC50 ([2]; rat liver microsome fraction, glucose 6-phosphate 1 mmol/l, pH 7.0, 20 minutes at room temperature, read-out: IC50 (concentration for 50% inhibition of enzyme activity)) [µM] |
| --- | --- | --- | --- |
| O=C(O)c1cc(SSc2ccc([N+](=O)[O-])c(C(=O)O)c2)ccc1[N+](=O)[O-] [5,5'-dithiobis-2-nitrobenzoic acid] | non-specific inhibitors of glucose-6-phosphatase | – | – |
| CC(=O)Oc1ccccc1C=Cc1ccccc1N=C=S [2-iso-thiocyanato-2'-acetoxystilbene] | non-specific inhibitors of glucose-6-phosphatase | – | – |
| CC(C)(COC(=O)/C=C(/c1ccccc1)n1cnc2ccccc21)C(OCCCc1ccc(Cl)cc1)C(=O)O (racemic) [Example 1, (±)-4-(3Z-(1-Benzimidazolyl)-3-phenylpropenoyloxy)-2-(4-chlorophenylpropyloxy)-3,3-dimethylbutanoic acid] | – | inhibitors of the glucose-6-phosphatase system | 4 |
| S=C=Nc1ccccc1C=Cc1ccccc1N=C=S [2,2'-diisothiocyanatostilbene] | non-specific inhibitors of glucose-6-phosphatase | – | – |
| O=C(CCc1ccc(O)cc1)c1c(O)cc(O)cc1O[C@@H]1O[C@H](CO)[C@@H](O)[C@H](O)[C@H]1O [phlorrhizin] | non-specific inhibitors of glucose-6-phosphatase | – | – |
